Columns and labels:
[1] = tested on: Ca2+ release-activated Ca2+ channel (CRACC); assay: CRACC inhibitory activity (in vitro test as described in patent reference 1); type: cell-based
Description: (§1) 4,6-Diemthyl-4′-[3,5-bis(trifluoromethyl)-1H-pyrazol-1-yl]nicotinanilide is excellent in terms of the CRACC inhibitory activity, the inhibition selectivity over VOCC, and the activity of suppressing IL-2 production. […] Therefore, a pharmaceutical product containing the compound is useful as an agent for preventing or treating allergic, inflammatory or autoimmune diseases in which CRACC and IL-2 participates. Herein, the allergic, inflammatory or autoimmune diseases include, for example, bronchial asthma, psoriasis, atopic diseases including atopic dermatitis, inflammatory bowel diseases including Crohn disease, digestive ulcer, nephritis, hepatitis, pancreatitis, collagenosis, rheumatoid arthritis, osteoarthritis, and rejection on transplantation. The usefulness on these diseases can be confirmed at the in vitro tests of the CRACC inhibitory activity and the activity of suppressing IL-2 production as described in the patent reference 1 and at various tests using, for example, antigen-induced airway eosinophilia model as a typical disease model of bronchial asthma, and murine collagen-induced arthritis model. 4,6-Dimethyl-4′-[3,5-bis (trifluoromethyl)-1H-pyrazol-1-yl]nicotinanilide may be produced by the method described in the patent reference 1.

[2] = tested on: TNCB-induced Contact Hypersensitivity; assay: Suppression of TNCB-induced Contact Hypersensitivity; type: in vivo; conditions: test described in patent reference 1
Description: as §1

IL-2 production = assay: Activity of suppressing IL-2 production; type: cell-based
Description: as §1

[3] = tested on: voltage-operated Ca2+ channel (VOCC); assay: Inhibition selectivity for CRACC over VOCC; type: cell-based
Description: A pyrazole derivative having a high inhibition selectivity for CRACC over voltage-operated Ca^2+ channel (abbreviated as VOCC hereinafter) involved in intracellular calcium regulation of excitatory cells such as smooth muscle cells and nerve cells and having an inhibitory activity against IL-2 production has been reported (for example, patent reference 1).
4,6-Diemthyl-4′-[3,5-bis(trifluoromethyl)-1H-pyrazol-1-yl]nicotinanilide is excellent in terms of the CRACC inhibitory activity, the inhibition selectivity over VOCC, and the activity of suppressing IL-2 production. […] Therefore, a pharmaceutical product containing the compound is useful as an agent for preventing or treating allergic, inflammatory or autoimmune diseases in which CRACC and IL-2 participates. Herein, the allergic, inflammatory or autoimmune diseases include, for example, bronchial asthma, psoriasis, atopic diseases including atopic dermatitis, inflammatory bowel diseases including Crohn disease, digestive ulcer, nephritis, hepatitis, pancreatitis, collagenosis, rheumatoid arthritis, osteoarthritis, and rejection on transplantation. […]

[4] = tested on: collagen-induced arthritis; assay: Murine collagen-induced arthritis model; type: in vivo; conditions: test described in patent reference 1
Description: as §1

[5] = tested on: antigen-induced airway eosinophilia; assay: Antigen-induced airway eosinophilia (rat); type: in vivo; conditions: test described in patent reference 1
Description: as §1

[6] = Stability test of the crystals (assay value by HPLC, internal standard method); type: physicochemical; conditions: for Stability test: assay value by HPLC (internal standard method, peak area): 40° C. under light-resistant; for Stability of the crystal: at 5 to 60° C. for at least three months
Description: Because both the α type and β type crystals are stable at 5 to 60° C. for at least three months and can be highly purified by recrystallization, these crystals may be used as raw materials for producing pharmaceutical products. Particularly, these crystals are preferable as raw materials for producing solid pharmaceutical preparations.
(The values express the assay values determined by an internal standard method on the basis of peak area obtained by HPLC)

SMILES | CRACC inhibitory activity [1] | effect on the suppression of TNCB-induced Contact Hypersensitivity [2] | activity of suppressing IL-2 production (IL-2 production) | inhibition selectivity over VOCC [3] | activity of suppressing the arthritis in murine collagen-induced arthritis model [4] | activity of suppressing of antigen-induced airway eosinophilia [5] | Stability test: assay value by HPLC (internal standard method, peak area) ([6]; After 1 month) [%] | Stability test: assay value by HPLC (internal standard method, peak area) ([6]; After 3 months) [%] | Stability of the crystal [6]
Cc1cc(C)c(C(=O)Nc2ccc(-n3nc(C(F)(F)F)cc3C(F)(F)F)cc2)cn1 [4,6-dimethyl-4′-[3,5-bis(trifluoromethyl)-1H-pyrazol-1-yl]nicotinanilide] | excellent | very good activities | excellent | excellent | very good activities | very good activities | – | – | –
Cc1cc(C)c(C(=O)Nc2ccc(-n3nc(C(F)(F)F)cc3C(F)(F)F)cc2)cn1 [β type crystal, 4,6-dimethyl-4′-[3,5-bis(trifluoromethyl)-1H-pyrazol-1-yl]nicotinanilide] | – | – | – | – | – | – | 99.7 | 100.7 | stable
Cc1cc(C)c(C(=O)Nc2ccc(-n3nc(C(F)(F)F)cc3C(F)(F)F)cc2)cn1 [α type crystal, 4,6-dimethyl-4′-[3,5-bis(trifluoromethyl)-1H-pyrazol-1-yl]nicotinanilide] | – | – | – | – | – | – | 100.7 | 99.2 | stable

Source: patent publication US7309710B2, “Crystals” (Astellas Pharma Inc., priority 2002, dated 2007)
